Assay results published in patent publication US20250154144A1 (CHILDREN'S HOSPITAL MEDICAL CENTER, priority 2021, published 2025).
Like-named read-outs stand apart in the source and are kept apart here. Values belong to the compound of their own block, whether it stands above or below them.

Columns and labels:
IRAK1 = IRAK1 (Homo sapiens, UniProt P51617); assay: RBC HotSpot Kinase Assay, IRAK1
FLT3 = biological target: T1, FLT3 (Homo sapiens, UniProt P36888); assay: RBC HotSpot Kinase Assay, FLT3
T1 sequence (P36888 610-943 limits assumed): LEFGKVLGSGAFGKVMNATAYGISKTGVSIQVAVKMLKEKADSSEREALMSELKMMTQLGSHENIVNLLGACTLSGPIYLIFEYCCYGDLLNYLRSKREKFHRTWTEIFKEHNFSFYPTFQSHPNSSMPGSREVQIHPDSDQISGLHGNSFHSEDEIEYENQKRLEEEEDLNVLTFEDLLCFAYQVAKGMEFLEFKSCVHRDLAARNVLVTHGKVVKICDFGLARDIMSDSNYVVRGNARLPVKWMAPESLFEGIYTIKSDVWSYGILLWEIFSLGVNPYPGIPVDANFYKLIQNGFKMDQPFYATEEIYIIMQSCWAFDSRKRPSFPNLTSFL

IRAK4 = biological target: T2, IRAK4 (Homo sapiens, UniProt Q9NWZ3); assay: RBC HotSpot Kinase Assay, IRAK4
T2 sequence (Q9NWZ3 1-460): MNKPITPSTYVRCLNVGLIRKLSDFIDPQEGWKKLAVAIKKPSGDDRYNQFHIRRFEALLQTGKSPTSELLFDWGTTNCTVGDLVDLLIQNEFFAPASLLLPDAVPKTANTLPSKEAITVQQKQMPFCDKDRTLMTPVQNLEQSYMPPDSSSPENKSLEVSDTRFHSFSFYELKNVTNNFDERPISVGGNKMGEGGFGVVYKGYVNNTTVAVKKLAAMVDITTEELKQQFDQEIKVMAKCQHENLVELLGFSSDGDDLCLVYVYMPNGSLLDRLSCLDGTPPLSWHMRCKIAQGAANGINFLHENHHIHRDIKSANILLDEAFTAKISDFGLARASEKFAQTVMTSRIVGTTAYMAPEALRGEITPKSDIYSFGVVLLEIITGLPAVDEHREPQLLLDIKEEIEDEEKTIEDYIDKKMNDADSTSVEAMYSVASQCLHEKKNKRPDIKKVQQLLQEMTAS

THP1 cells = assay: Combination drug screening, Cell Titer Glo, 10 × 10 matrix, THP1 cells; assay type: cell-based; settings: THP1 cells; for Excess HSA Score: 10 × 10
MOLM14(D835Y) cells = assay type: cell-based; settings: MOLM14(D835Y) cells; for Excess HSA Score: 10 × 10
[1] = combination with (+)-BAY-1251152
[2] = combination with Eprenetapopt/APR-246
[3] = combination with Venetoclax (ABT-199)

Sequence of IRAK1 (P51617 whole entry): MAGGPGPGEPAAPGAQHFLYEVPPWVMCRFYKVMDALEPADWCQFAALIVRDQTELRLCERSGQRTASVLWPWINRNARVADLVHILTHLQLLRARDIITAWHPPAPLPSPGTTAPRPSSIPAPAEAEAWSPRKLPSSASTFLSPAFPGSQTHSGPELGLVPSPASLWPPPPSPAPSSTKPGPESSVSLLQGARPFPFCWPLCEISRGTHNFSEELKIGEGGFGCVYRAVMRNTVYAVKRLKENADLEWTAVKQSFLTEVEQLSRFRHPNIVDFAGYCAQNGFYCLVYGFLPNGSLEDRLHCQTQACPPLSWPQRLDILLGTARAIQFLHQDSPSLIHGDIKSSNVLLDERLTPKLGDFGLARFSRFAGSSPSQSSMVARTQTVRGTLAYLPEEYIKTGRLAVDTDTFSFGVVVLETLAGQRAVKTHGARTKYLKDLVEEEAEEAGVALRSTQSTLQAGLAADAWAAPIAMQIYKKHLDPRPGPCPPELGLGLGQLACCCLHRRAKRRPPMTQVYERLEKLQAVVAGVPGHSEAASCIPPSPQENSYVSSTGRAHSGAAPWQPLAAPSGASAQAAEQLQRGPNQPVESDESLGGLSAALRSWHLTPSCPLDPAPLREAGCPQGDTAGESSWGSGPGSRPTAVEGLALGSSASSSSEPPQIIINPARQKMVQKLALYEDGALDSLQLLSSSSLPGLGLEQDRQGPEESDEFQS

IC50 (IRAK1; IRAK1 IC50): 1020 nM | IC50 (FLT3; FLT3 IC50): 6 nM | IC50 (IRAK4; IRAK4 IC50): 367 nM
Compound: COc1cc2ncc(-c3cncc(N[C@H]4CNCC[C@@H]4F)n3)n2nc1C(C)(O)C(F)(F)F (single isomer, unassigned) [Compound 79]

IC50 (IRAK1; read-out: IRAK1 IC50): < 0.5 nM | IC50 (FLT3; read-out: FLT3 IC50): < 0.5 nM | IC50 (IRAK4; read-out: IRAK4 IC50): < 0.5 nM
Compound: COc1cc2ncc(-c3ccnc(N[C@H]4CNC[C@@H]4F)n3)n2cc1C(C)(O)C(F)(F)F (single isomer, unassigned) [Compound 56]

IC50 (IRAK1; IRAK1 IC50): 13 nM | IC50 (FLT3; FLT3 IC50): < 0.5 nM | IC50 (IRAK4; IRAK4 IC50): 1 nM
Compound: F[C@H]1CNC[C@@H]1Nc1nccc(-c2cnc3cc(OC4CC4)ccn23)n1 [Compound 37, 4-(7-cyclopropoxyimidazo [1,2-a]pyridin-3-yl)-N-((3S,4S)-4-fluoropyrrolidin-3-yl)pyrimidin-2-amine]

IC50 (IRAK1; IRAK1 IC50): < 0.5 nM | IC50 (FLT3; FLT3 IC50): < 0.5 nM | IC50 (IRAK4; IRAK4 IC50): < 0.5 nM
Compound: COc1cc2ncc(-c3cncc(N[C@H]4CNC[C@@H]4F)n3)n2cc1C(C)(O)C(F)(F)F (single isomer, unassigned) [Compound 61]

IC50 (IRAK1; IRAK1 IC50): 7900 nM | IC50 (FLT3; FLT3 IC50): 8 nM | IC50 (IRAK4; IRAK4 IC50): 2540 nM
Compound: COc1cc2ncc(-c3cncc(N[C@H]4CNC[C@@H]4F)n3)n2nc1C(C)(O)C(F)(F)F (single isomer, unassigned) [Compound 81]

IC50 (IRAK1; IRAK1 IC50): < 0.5 nM | IC50 (FLT3; FLT3 IC50): < 0.5 nM | IC50 (IRAK4; IRAK4 IC50): < 0.5 nM
Compound: COc1cc2ncc(-c3ccnc(N[C@H]4CNC[C@@H]4F)n3)n2cc1C(C)(O)C(F)(F)F (single isomer, unassigned) [Compound 55]

IC50 (IRAK1; IRAK1 IC50): 1120 nM | IC50 (FLT3; FLT3 IC50): < 0.5 nM | IC50 (IRAK4; IRAK4 IC50): 406 nM
Compound: COc1cc2ncc(-c3cncc(N[C@H]4CNCC[C@@H]4F)n3)n2nc1C(C)(O)C(F)(F)F (single isomer, unassigned) [Compound 80]

IC50 (IRAK1; read-out: IRAK1 IC50): < 0.5 nM | IC50 (FLT3; read-out: FLT3 IC50): < 0.5 nM | IC50 (IRAK4; read-out: IRAK4 IC50): < 0.5 nM
Compound: COc1cc2ncc(-c3cncc(N[C@H]4CNCC[C@@H]4F)n3)n2cc1C(C)(O)C(F)(F)F (single isomer, unassigned) [Compound 66]

IC50 (IRAK1; IRAK1 IC50): 105 nM | IC50 (FLT3; FLT3 IC50): 5 nM | IC50 (IRAK4; IRAK4 IC50): 7 nM
Compound: CC(C)(O)c1ccc2ncc(-c3cncc(N[C@@H]4CCCNC4)n3)n2c1 [Compound 17, (R)-2-(3-(6-(piperidin-3-ylamino)pyrazin-2-yl)imidazo[1,2-a]pyridin-6-yl)propan-2-ol]

IC50 (IRAK1; IRAK1 IC50): 175 nM | IC50 (FLT3; FLT3 IC50): < 0.5 nM | IC50 (IRAK4; IRAK4 IC50): 1 nM
Compound: COc1cc2ncc(-c3cncc(N[C@@H]4CCCNC4)n3)n2nc1C1CC1 [Compound 23, (R)-6-(6-cyclopropyl-7-methoxyimidazo[1,2-b]pyridazin-3-yl)-N-(piperidin-3-yl)pyrazin-2-amine]

IC50 (IRAK1; IRAK1 IC50): < 0.5 nM | IC50 (FLT3; FLT3 IC50): < 0.5 nM | IC50 (IRAK4; IRAK4 IC50): < 0.5 nM
Compound: COc1cc2ncc(-c3ccnc(N[C@H]4CNCC[C@@H]4F)n3)n2cc1C(C)(O)C(F)(F)F (stereo partly drawn) [Compound 60]

IC50 (IRAK1; IRAK1 IC50): < 0.5 nM | IC50 (FLT3; FLT3 IC50): < 0.5 nM | IC50 (IRAK4; IRAK4 IC50): < 0.5 nM
Compound: COc1cc2ncc(-c3ccnc(N[C@@H]4CCCNC4)n3)n2cc1C(C)(O)C(F)(F)F (single isomer, unassigned) [Compound 57]

IC50 (IRAK1; IRAK1 IC50): 124 nM | IC50 (FLT3; FLT3 IC50): 1 nM | IC50 (IRAK4; IRAK4 IC50): 8 nM
Compound: CC(C)(O)c1ccc2ncc(-c3ccnc(N[C@@H]4CCCNC4)n3)n2c1 [Compound 41, (R)-2-(3-(2-(piperidin-3-ylamino)pyrimidin-4-yl)imidazo[1,2-a]pyridin-6-yl)propan-2-ol]

IC50 (IRAK1; IRAK1 IC50): 3020 nM | IC50 (FLT3; FLT3 IC50): 2 nM | IC50 (IRAK4; IRAK4 IC50): 512 nM
Compound: COc1cc2ncc(-c3cncc(N[C@@H]4CCCNC4)n3)n2nc1C(C)(O)C(F)(F)F (single isomer, unassigned) [Compound 84]

IC50 (IRAK1; IRAK1 IC50): 237 nM | IC50 (FLT3; FLT3 IC50): 5 nM | IC50 (IRAK4; IRAK4 IC50): 13 nM
Compound: CC(C)(O)c1ccc2ncc(-c3cncc(N[C@H]4CNC[C@@H]4F)n3)n2c1 [Compound 16, 2-(3-(6-(((3S,4S)-4-fluoropyrrolidin-3-yl)amino)pyrazin-2-yl)imidazo[1,2-a]pyridin-6-yl)propan-2-ol]

IC50 (IRAK1; IRAK1 IC50): 0.6 nM | IC50 (FLT3; FLT3 IC50): < 0.5 nM | IC50 (IRAK4; IRAK4 IC50): < 0.5 nM
Compound: CC(O)(c1cn2c(-c3ccnc(N[C@H]4CNCC[C@@H]4F)n3)cnc2cn1)C(F)(F)F (single isomer, unassigned) [Compound 58]

IC50 (IRAK1; IRAK1 IC50): 2 nM | IC50 (FLT3; FLT3 IC50): < 0.5 nM | IC50 (IRAK4; IRAK4 IC50): 0.7 nM
Compound: COc1cc2ncc(-c3cncc(N[C@@H]4CCCNC4)n3)n2cc1C(C)(O)C(F)(F)F (single isomer, unassigned) [Compound 63]

IC50 (IRAK1; IRAK1 IC50): 2 nM | IC50 (FLT3; read-out: FLT3 IC50): < 0.5 nM | IC50 (IRAK4; read-out: IRAK4 IC50): < 0.5 nM
Compound: COc1cc2ncc(-c3cncc(N[C@H]4CNC[C@@H]4F)n3)n2cc1C(C)(O)C(F)(F)F (single isomer, unassigned) [Compound 62]

IC50 (IRAK1; IRAK1 IC50): 5440 nM | IC50 (FLT3; FLT3 IC50): 67 nM | IC50 (IRAK4; IRAK4 IC50): 2040 nM
Compound: COc1cc2ncc(-c3cncc(N[C@@H]4CCCNC4)n3)n2nc1C(C)(O)C(F)(F)F (single isomer, unassigned) [Compound 82]

IC50 (IRAK1; IRAK1 IC50): 79 nM | IC50 (FLT3; FLT3 IC50): < 0.5 nM | IC50 (IRAK4; IRAK4 IC50): 1 nM
Compound: CC(C)(O)c1ccc2ncc(-c3ccnc(N[C@H]4CNC[C@@H]4F)n3)n2c1 [Compound 40, 2-(3-(2-(((3S,4S)-4-fluoropyrrolidin-3-yl)amino)pyrimidin-4-yl)imidazo[1,2-a]pyridin-6-yl)propan-2-ol]

IC50 (IRAK1; IRAK1 IC50): 1 nM | IC50 (FLT3; read-out: FLT3 IC50): < 0.5 nM | IC50 (IRAK4; IRAK4 IC50): < 0.5 nM
Compound: COc1cc2ncc(-c3cncc(N[C@@H]4CCCNC4)n3)n2cc1C(C)(O)C(F)(F)F (single isomer, unassigned) [Compound 64]

IC50 (IRAK1; IRAK1 IC50): 4690 nM | IC50 (FLT3; FLT3 IC50): 1 nM | IC50 (IRAK4; IRAK4 IC50): 544 nM
Compound: COc1cc2ncc(-c3cncc(N[C@H]4CNC[C@@H]4F)n3)n2nc1C(C)(O)C(F)(F)F (single isomer, unassigned) [Compound 83]

IC50 (IRAK1; IRAK1 IC50): < 0.5 nM | IC50 (FLT3; FLT3 IC50): < 0.5 nM | IC50 (IRAK4; IRAK4 IC50): < 0.5 nM
Compound: COc1cc2ncc(-c3cncc(N[C@H]4CNCC[C@@H]4F)n3)n2cc1C(C)(O)C(F)(F)F (single isomer, unassigned) [Compound 65]

IC50 (IRAK1; read-out: IRAK1 IC50): < 0.5 nM | IC50 (FLT3; read-out: FLT3 IC50): < 0.5 nM | IC50 (IRAK4; read-out: IRAK4 IC50): < 0.5 nM
Compound: COc1cc2ncc(-c3ccnc(N[C@@H]4CCCNC4)n3)n2cc1C(C)(O)C(F)(F)F (single isomer, unassigned) [Compound 59]
Excess HSA Score (THP1 cells; [1]): −945.9 | Excess HSA Score (THP1 cells; combination with AMG-232): 249.9 | Excess HSA Score (THP1 cells; combination with AZD-5363): −164.6 | Excess HSA Score (THP1 cells; [2]): 269.2 | Excess HSA Score (THP1 cells; combination with Ivosidenib): 205.2 | Excess HSA Score (THP1 cells; combination with Lenalidomide): 30.374 | Excess HSA Score (THP1 cells; combination with Palbociclib): −620.1 | Excess HSA Score (THP1 cells; combination with Prednisolone): 486.6 | Excess HSA Score (THP1 cells; combination with SNDX-5613): 68.13 | Excess HSA Score (THP1 cells; combination with TNO-155): 213.8 | Excess HSA Score (THP1 cells; combination with Trametinib): −374.5 | Excess HSA Score (THP1 cells; combination with Ulixertinib): 164.2711 | Excess HSA Score (THP1 cells; [3]): −1422 | Comments (THP1 cells; combination with Lenalidomide): Antagonistic | Comments (THP1 cells; [3]): Synergistic | Excess HSA Score (MOLM14(D835Y) cells; [1]): −448.2 | Excess HSA Score (MOLM14(D835Y) cells; combination with AMG-232): −416.2 | Excess HSA Score (MOLM14(D835Y) cells; combination with AZD-5363): −316.4244 | Excess HSA Score (MOLM14(D835Y) cells; [2]): −22.76 | Excess HSA Score (MOLM14(D835Y) cells; combination with Ivosidenib): 107.6 | Excess HSA Score (MOLM14(D835Y) cells; combination with Lenalidomide): 395.8 | Excess HSA Score (MOLM14(D835Y) cells; combination with Palbociclib): −185.3 | Excess HSA Score (MOLM14(D835Y) cells; combination with Prednisolone): 66.52 | Excess HSA Score (MOLM14(D835Y) cells; combination with SNDX-5613): 130.9 | Excess HSA Score (MOLM14(D835Y) cells; combination with TNO-155): −722.6 | Excess HSA Score (MOLM14(D835Y) cells; combination with Trametinib): −383 | Excess HSA Score (MOLM14(D835Y) cells; combination with Ulixertinib): −473 | Excess HSA Score (MOLM14(D835Y) cells; [3]): −1215 | Comments (MOLM14(D835Y) cells; combination with Prednisolone): Antagonistic | Comments (MOLM14(D835Y) cells; [3]): Synergistic
